Measured values: Sander's compilation of Henry's law constants (doi:10.1021/ac0604742)

Experiment: Henry solubility constant Hcp at 298.15 K (mol/(m3 Pa))
Settings: reference: Fang et al. (2006)
In the case of Clc1ccc(-c2cc(Cl)c(Cl)c(Cl)c2)c(Cl)c1 [2,3',4,4',5'-pentachlorobiphenyl], the “Henry solubility constant Hcp” value is reported as 0.046. For Clc1cc(Cl)c(-c2cc(Cl)c(Cl)c(Cl)c2)cc1Cl [2,3',4,4',5,5'-hexachlorobiphenyl], the “Henry solubility constant Hcp” value was 0.078. For Clc1ccc(-c2cc(Cl)c(Cl)cc2Cl)cc1Cl [2,3',4,4',5-pentachlorobiphenyl], the “Henry solubility constant Hcp” value was 0.057. With Clc1cc(-c2ccc(Cl)c(Cl)c2Cl)cc(Cl)c1Cl [2,3,3',4,4',5'-hexachlorobiphenyl] the “Henry solubility constant Hcp” value was 0.06. For Clc1cc(-c2cc(Cl)c(Cl)c(Cl)c2Cl)cc(Cl)c1Cl [2,3,3',4,4',5,5'-heptachlorobiphenyl], the “Henry solubility constant Hcp” value was 0.084. For Clc1ccc(-c2cc(Cl)c(Cl)c(Cl)c2Cl)cc1Cl [2,3,3',4,4',5-hexachlorobiphenyl], the “Henry solubility constant Hcp” value was 0.068. In the case of Clc1ccc(-c2ccc(Cl)c(Cl)c2Cl)cc1Cl [2,3,3',4,4'-pentachlorobiphenyl], the “Henry solubility constant Hcp” value is reported as 0.18. For Clc1cc(-c2cc(Cl)c(Cl)c(Cl)c2)cc(Cl)c1Cl [3,3',4,4',5,5'-hexachlorobiphenyl], the “Henry solubility constant Hcp” value was 0.081. With Clc1ccc(-c2cc(Cl)c(Cl)c(Cl)c2)cc1Cl [3,3',4,4',5-pentachlorobiphenyl] the “Henry solubility constant Hcp” value was 0.1. With Clc1ccc(-c2ccc(Cl)c(Cl)c2)cc1Cl [3,3',4,4'-tetrachlorobiphenyl] the “Henry solubility constant Hcp” value was 0.091. In the case of Clc1ccc(-c2cc(Cl)c(Cl)c(Cl)c2)cc1 [3,4,4',5-tetrachlorobiphenyl], the “Henry solubility constant Hcp” value is reported as 0.088.
